Data taken from PubChem BioAssay (NCI).
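Five concentrations, 48 hours, 96-well plates. GI50 = concentration required for 50% inhibition of growth. The concentration for full growth arrest is given as TGI.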

Tests used:
Experiment in all cases: NCI-60 cell line screen, 48 h
[1] = tested on: SF-268 CNS
[2] = tested on: U251 CNS
[3] = tested on: OVCAR-5 ovarian
[4] = tested on: OVCAR-4 ovarian
[5] = tested on: ACHN renal
[6] = tested on: EKVX NSCLC
[7] = tested on: MOLT-4 leukemia
[8] = tested on: SK-MEL-28 melanoma
[9] = tested on: SR leukemia
[10] = tested on: OVCAR-3 ovarian
[11] = tested on: HCT-15 colon
[12] = tested on: DU-145 prostate
[13] = tested on: SNB-75 CNS
[14] = tested on: RPMI-8226 leukemia
[15] = tested on: NCI-H522 lung
[16] = tested on: SF-539 CNS
[17] = tested on: IGROV1 ovarian
[18] = tested on: HCT-116 colon
[19] = tested on: NCI/ADR-RES ovarian
[20] = tested on: CAKI-1 renal
[21] = tested on: MDA-MB-435
[22] = tested on: MALME-3M melanoma
[23] = tested on: PC-3 prostate
[24] = tested on: MCF7 breast
[25] = tested on: SN12C renal
[26] = tested on: HL-60(TB) leukemia
[27] = tested on: A498 renal
[28] = tested on: SK-OV-3 ovarian
[29] = tested on: SK-MEL-5 melanoma

## CC1(C)N=C(N)N=C(N)N1c1ccc(Cl)c(Cl)c1
[1]
  TGI: > 100 µM
[2]
  GI50: 0.0887 µM
  TGI: > 100 µM
[3]
  GI50: 0.252 µM
  TGI: > 100 µM
[4]
  GI50: 10.9 µM
  TGI: > 100 µM
[5]
  GI50: 0.683 µM
  TGI: > 100 µM
[6]
  GI50: 1.97 µM
  TGI: > 100 µM
[7]
  GI50: 1.38 µM
  TGI: > 100 µM
[8]
  GI50: 11.7 µM
  TGI: > 100 µM
[9]
  GI50: 31.3 µM
  TGI: > 100 µM
[10]
  GI50: 5.27 µM
  TGI: > 100 µM
[11]
  GI50: 1.37 µM
  TGI: > 100 µM
[12]
  GI50: 0.523 µM
  TGI: > 100 µM
[13]
  GI50: 18.7 µM
  TGI: > 81.3 µM
[14]
  TGI: > 100 µM
[15]
  GI50: 6.67 µM
  TGI: > 100 µM
[16]
  GI50: 0.201 µM
  TGI: > 54 µM
[17]
  GI50: 0.356 µM
  TGI: > 100 µM
[18]
  GI50: 0.0549 µM
  TGI: > 100 µM
[19]
  GI50: 43 µM
  TGI: > 100 µM
[20]
  GI50: 12.5 µM
  TGI: > 100 µM
[21]
  GI50: 0.0644 µM
  TGI: > 100 µM
[22]
  GI50: 32 µM
  TGI: > 100 µM
[23]
  GI50: 0.157 µM
  TGI: > 100 µM
[24]
  GI50: 0.388 µM
  TGI: > 100 µM
[25]
  GI50: 0.694 µM
  TGI: > 100 µM
[26]
  GI50: 6.27 µM
  TGI: > 100 µM
[27]
  GI50: 11.2 µM
  TGI: > 100 µM
[28]
  GI50: 0.83 µM
  TGI: > 100 µM
[29]
  GI50: 0.547 µM
  TGI: > 100 µM
